Test results from patent publication US20230077362A1 (CORTEVA AGRISCIENCE LLC, priority 2019, published 2023).
Read-outs that look alike come from different tables or passages of the source.

How the values were obtained:
[1] = test system: Beet Armyworm (Spodoptera exigua) ("BAW"), second instar larvae; assay: Bioassay on beet armyworm (BAW), 128-well diet tray assay; format: in vivo; conditions: for pest or weed control at 50 µg/cm2: Spodoptera exigua
Outline: (§1)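 Sealed trays, 25° C., 14:10 light:dark, 5–7 d. Per-well % mortality recorded, mean of eight wells reported.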

[2] = test system: Cabbage Looper (Trichoplusia ni) ("CL"), second instar larvae; assay: Bioassay on cabbage looper (CL), 128-well diet tray assay; format: in vivo
Outline: as §1

[3] = read-out: BAW (Biological Results, rating)
[4] = Trichoplusia ni, read-out: CL (Biological Results, rating)
[5] = Trichoplusia ni, read-out: CL rating

Compound | pest or weed control at 50 µg/cm2 [1, 3] | pest or weed control at 50 µg/cm2 [2, 4] | pest or weed control at 50 µg/cm2 ([1]; read-out: BAW rating) | pest or weed control at 50 µg/cm2 [2, 5] | other results
Cc1ccc(C(C)C)c(N2C(=O)CS/C2=N\C(=O)Nc2ccc(-c3ncn(-c4cccc(C(F)(F)F)c4)n3)cc2C)c1 [Compound J131, (Z)-1-(3-(2-Isopropyl-5-methylphenyl)-4-oxothiazolidin-2-ylidene)-3-(2-methyl-4-(1-(3-(trifluoromethyl)phenyl)-1H-1,2,4-triazol-3-yl)phenyl)urea] | 50 to 100% | 50 to 100% |  |  | 
Cc1ccc(COCC(F)(F)F)c(N2C(=O)CS/C2=N\C(=O)Nc2ccc(-c3n[nH]c(-c4ccccc4)n3)cc2)c1 [Compound J802, (Z)-1-(3-(5-Methyl-2-((2,2,2-trifluoroethoxy)methyl)phenyl)-4-oxothiazolidin-2-ylidene)-3-(4-(5-phenyl-1H-1,2,4-triazol-3-yl)phenyl)urea] |  |  |  |  | BAW rating (% control or mortality class) ([1]; Table ABC, species BAW, 128-well diet tray assay, second instar larvae): A (50-100); mortality at 50 µg/cm2 ([2]; Trichoplusia ni, Table ABC, species CL, 128-well diet tray assay, second instar larvae, read-out: CL rating (% control or mortality class)): 50 to 100%
CCOCc1ccc(C)cc1N1C(=O)CS/C1=N\C(=O)Nc1ccc(-c2ncn(-c3ccc(OC)cc3)n2)cc1F [Compound J755, (Z)-1-(3-(2-(Ethoxymethyl)-5-methylphenyl)-4-oxothiazolidin-2-ylidene)-3-(2-fluoro-4-(1-(4-methoxyphenyl)-1H-1,2,4-triazol-3-yl)phenyl)urea] |  |  | 50 to 100% | 50 to 100% | 
CN(C)c1ccc(C(F)(F)F)c(N2C(=O)CS/C2=N\C(=O)Nc2ccc(-c3cn(-c4ccc(S(F)(F)(F)(F)F)cc4)cn3)cc2F)c1 [Compound J600, (Z)-1-(3-(5-(Dimethylamino)-2-(trifluoromethyl)phenyl)-4-oxothiazolidin-2-ylidene)-3-(2-fluoro-4-(1-(4-(pentafluoro-λ^6-sulfaneyl)phenyl)-1H-imidazol-4-yl)phenyl)urea] |  |  | 50 to 100% | 50 to 100% | 
COC(C)c1ccc(C)cc1N1C(=O)CS/C1=N\C(=O)Nc1ccc(-c2cn(-c3ccc(OC(F)(F)F)cc3)cn2)cc1 (stereo not shown) [Compound J463, (Z)-1-(3-(2-(1-Methoxyethyl)-5-methylphenyl)-4-oxothiazolidin-2-ylidene)-3-(4-(1-(4-(trifluoromethoxy)phenyl)-1H-imidazol-4-yl)phenyl)urea] |  |  | 50 to 100% | 50 to 100% | 
CCCc1ccc(N(C)C)cc1N1C(=O)CS/C1=N\C(=O)Nc1ccc(-c2ncn(-c3ccc(S(=O)(=O)C(F)(F)F)cc3)n2)cc1C [Compound J374, (Z)-1-(3-(5-(Dimethylamino)-2-propylphenyl)-4-oxothiazolidin-2-ylidene)-3-(2-methyl-4-(1-(4-((trifluoromethyl)sulfonyl)phenyl)-1H-1,2,4-triazol-3-yl)phenyl)urea] |  |  | 50 to 100% | 50 to 100% | 
COC(C)c1ccc(C)cc1N1C(=O)CS/C1=N\C(=O)Nc1ccc(-c2ncn(-c3ccc(OC(F)(F)F)cc3)n2)cc1Br (stereo not shown) [Compound J220, (Z)-1-(2-Bromo-4-(1-(4-(trifluoromethoxy)phenyl)-1H-1,2,4-triazol-3-yl)phenyl)-3-(3-(2-(1-methoxyethyl)-5-methylphenyl)-4-oxothiazolidin-2-ylidene)urea] | 50 to 100% | 50 to 100% |  |  | 
Cc1ccc(COCC(F)(F)F)c(N2C(=O)CS/C2=N\C(=O)Nc2ccc(-c3ncn(-c4ccc(C(F)(F)F)cn4)n3)cc2F)c1 [Compound J281, (Z)-1-(2-Fluoro-4-(1-(5-(trifluoromethyl)pyridin-2-yl)-1H-1,2,4-triazol-3-yl)phenyl)-3-(3-(5-methyl-2-((2,2,2-trifluoroethoxy)methyl)phenyl)-4-oxothiazolidin-2-ylidene)urea] | 50 to 100% | 50 to 100% |  |  | 
CCCN(CCC)c1ccc(C(C)C)c(N2C(=O)CS/C2=N\C(=O)Nc2ccc(-c3ncn(-c4ccc(OC(F)(F)F)cc4)n3)cc2F)c1 [Compound J108, (Z)-1-(3-(5-(Dipropylamino)-2-isopropylphenyl)-4-oxothiazolidin-2-ylidene)-3-(2-fluoro-4-(1-(4-(trifluoromethoxy)phenyl)-1H-1,2,4-triazol-3-yl)phenyl)urea] | 50 to 100% | 50 to 100% |  |  | 
CNc1ccc(C(C)C)c(N2C(=O)CS/C2=N\C(=O)Nc2ccc(-c3ncn(-c4ccc(OC(F)(F)F)cc4)n3)cc2F)c1 [Compound J85, (Z)-1-(2-Fluoro-4-(1-(4-(trifluoromethoxy)phenyl)-1H-1,2,4-triazol-3-yl)phenyl)-3-(3-(2-isopropyl-5-(methylamino)phenyl)-4-oxothiazolidin-2-ylidene)urea] | 50 to 100% | 50 to 100% |  |  | 
CCOC(C)c1ccc(C)cc1N1C(=O)CS/C1=N\C(=O)Nc1ccc(-c2ncn(-c3ccc(C(F)(F)F)cn3)n2)cc1F (stereo not shown) [Compound J378] |  |  |  |  | BAW rating ([1]; Table ABC, species BAW, C = not tested, D = no activity noticed): A (50-100); CL rating ([2]; Table ABC, species CL, C = not tested, D = no activity noticed): A (50-100)
CCCc1ccc(N(C)C)cc1N1C(=O)CS/C1=N\C(=O)Nc1ccc(-c2ncn(-c3ccc(C(F)(F)F)cn3)n2)cc1F [Compound J282, (Z)-1-(3-(5-(Dimethylamino)-2-propylphenyl)-4-oxothiazolidin-2-ylidene)-3-(2-fluoro-4-(1-(5-(trifluoromethyl)pyridin-2-yl)-1H-1,2,4-triazol-3-yl)phenyl)urea] | 50 to 100% | 50 to 100% |  |  | 
COc1ccc(CC(F)(F)F)c(N2C(=O)CS/C2=N\C(=O)NC(C)Cc2ccc(-c3ncn(-c4ccc(OC(F)(F)F)cc4)n3)cc2)c1 (stereo not shown) [Compound H15] | 50 to 100% | 50 to 100% |  |  | 
COc1ccc(CC(F)(F)F)c(N2C(=O)CS/C2=N\C(=O)NCC(F)c2ccc(-c3ncn(-c4ccc(OC(F)(F)F)cc4)n3)cc2C)c1 (stereo not shown) [Compound H16] | 50 to 100% | 50 to 100% |  |  | 
CCCCc1ccc(OC)cc1N1C(=O)CS/C1=N\C(=O)Nc1ccc(-c2ncn(-c3ccc(OC(F)(F)F)cc3)n2)cc1F [Compound J45, (Z)-1-(3-(2-Butyl-5-methoxyphenyl)-4-oxothiazolidin-2-ylidene)-3-(2-fluoro-4-(1-(4-(trifluoromethoxy)phenyl)-1H-1,2,4-triazol-3-yl)phenyl)urea] | 50 to 100% | 50 to 100% |  |  | 
Cc1ccc(-c2ccco2)c(N2C(=O)CS/C2=N\C(=O)Nc2ccc(-c3ncn(-c4ccc(OC(F)(F)F)cc4)n3)cc2C)c1 [Compound J488, (Z)-1-(3-(2-(Furan-2-yl)-5-methylphenyl)-4-oxothiazolidin-2-ylidene)-3-(2-methyl-4-(1-(4-(trifluoromethoxy)phenyl)-1H-1,2,4-triazol-3-yl)phenyl)urea] |  |  | 50 to 100% | 50 to 100% | 
Cc1ccc(OCCC(F)(F)F)c(N2C(=O)CS/C2=N\C(=O)Nc2ccc(-c3ncn(-c4ccc(OCC#N)cc4)n3)cc2C)c1 [Compound J360, (Z)-1-(4-(1-(4-(Cyanomethoxy)phenyl)-1H-1,2,4-triazol-3-yl)-2-methylphenyl)-3-(3-(5-methyl-2-(3,3,3-trifluoropropoxy)phenyl)-4-oxothiazolidin-2-ylidene)urea] |  |  | 50 to 100% | 50 to 100% | 
